Source: PubChem BioAssay (NCI)
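Cultured in 96-well plates, cells were exposed to test compound for 48 hours across five concentrations. GI50 is the concentration that inhibits growth by half. Definition used: TGI = concentration required for complete inhibition of growth.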

What was measured:
Assay in all cases: growth of human tumour cells (NCI), 48 h
[1] = tested on: HL-60(TB) leukemia
[2] = tested on: SF-295 CNS
[3] = tested on: SK-MEL-28 melanoma
[4] = tested on: SK-MEL-5 melanoma
[5] = tested on: HCT-15 colon
[6] = tested on: M14 melanoma
[7] = tested on: CAKI-1 renal
[8] = tested on: HT29 colon
[9] = tested on: NCI-H522 lung
[10] = tested on: CCRF-CEM leukemia

SMILES | GI50 [1] [µM] | TGI [1] [µM] | GI50 [2] [µM] | TGI [2] [µM] | GI50 [3] [µM] | TGI [3] [µM] | GI50 [4] [µM] | TGI [4] [µM] | GI50 [5] [µM] | TGI [5] [µM] | GI50 [6] [µM] | TGI [6] [µM] | GI50 [7] [µM] | TGI [7] [µM] | GI50 [8] [µM] | TGI [8] [µM] | GI50 [9] [µM] | TGI [9] [µM] | GI50 [10] [µM] | TGI [10] [µM]
COc1cccc2c1cc1c3c(cc4c(c32)OCO4)C(=O)N1 | 7.59 | 27.8 | 7.27 | 29.1 | 13.1 | 67.2 | 4.49 | > 100 | 4.14 | > 100 | 12.1 | > 100 | 22.4 | > 100 | 5.02 | 73 | 2.62 | 8.96 | 5.15 | > 100
Cn1nc(-c2ccccc2)c(C(=O)/C=C/c2ccc(Cl)cc2)c(N2CCCC2)c1=O |  | 4.97 |  | 11.6 |  | 13.8 |  | 18.6 |  | > 100 |  | 22.2 |  | 22.2 |  | 15.3 |  | 6.45 |  | 6.7
O=C(Nc1cccc(C(F)(F)F)c1)c1cc2ccccc2cc1O | 1.15 | 12.1 | 2.86 | 8.68 | 3.05 | > 100 | 0.987 | 3.5 | 2.34 | > 100 | 3.26 | 48.7 | 0.345 | 1.22 | 3.33 | > 55.5 | 0.471 | > 19.9 | 3.67 | > 100
Cc1ccc(-c2n[nH]c(=O)c3noc(-c4ccc(C)cc4)c23)cc1 | 0.31 | > 100 |  |  | 10.2 | > 100 | 0.97 | > 100 | 0.651 | > 100 | 0.422 | > 100 | 2.27 | > 100 | 0.4 | 15.8 | 0.411 | 4.98 | 2.45 | > 100
Cc1ccc2nc(NC(=O)C(=O)CC(=O)c3cccc4ccccc34)sc2c1 |  | > 100 |  | 48.4 |  | > 100 |  | 55.4 |  | > 100 |  | 44.2 |  | 78 |  | > 100 |  |  |  | > 100
N#C/C(=C\c1ccc2[nH]ccc2c1)C(=O)c1ccc(O)c(O)c1 |  | > 95.1 |  | > 100 |  | > 100 |  | > 100 |  | > 100 |  | > 100 |  | > 100 |  | > 100 |  | > 100 |  | > 85
COC(=O)C(=O)C(C(=O)C(=O)Nc1cc(Cl)c(Cl)cc1Cl)c1nc2ccc([N+](=O)[O-])cc2[nH]c1=O (stereo not drawn) |  |  |  | > 100 |  | > 100 |  | > 100 |  | > 100 |  | > 100 |  | > 100 |  |  |  | > 100 |  | > 100
CC(=O)[C-](C(C)=O)c1ccccc1.CC(=O)[C-](C(C)=O)c1ccccc1.CC(=O)[C-](C(C)=O)c1ccccc1.[Cl-].[Zr+4] | > 100 | > 100 | > 100 | > 100 |  |  | > 100 | > 100 | > 100 | > 100 | > 100 | > 100 | > 100 | > 100 | > 100 | > 100 | > 100 | > 100 |  | 
C/C(=N/O)c1ccc(Nc2cc(-n3ccnc3)c3ccccc3n2)cc1 |  |  | 15.1 | > 100 | 70.4 | > 100 | 16.3 | > 100 | 14.3 | 37.3 | 5.75 | > 100 | 26.6 | > 100 | 8.34 | > 100 | 35.8 | > 100 | 0.126 | 1.99
O=C(Nc1nc2ccccc2s1)c1cc(-c2ccc(F)cc2)n2nc(-c3ccccc3)cc2n1 | > 100 | > 100 | 4.11 | > 100 |  |  |  |  |  |  | 3.13 | > 100 |  |  |  |  |  |  | 1.87 | 4.52
CC(C(N)=O)N(C)C(=O)c1cnc2ccccc2c1 (stereo not drawn) |  | > 100 |  | > 100 |  | > 100 |  | > 100 |  | > 100 |  | > 100 |  | > 100 |  | > 100 |  | > 100 |  | > 100
CCc1cc(Cc2ccc(C)c(NC(=O)C(=O)C3C(=O)NC(=O)NC3=O)c2CC)cc(C)c1NC(=O)C(=O)C1C(=O)NC(=O)NC1=O |  | > 100 |  |  |  | > 100 |  | > 100 |  | > 100 |  | > 100 |  | > 100 |  |  |  | > 100 |  | > 100
CC(=O)c1c2c(cc3c1CC1(C3)Cc3cc4c(c(C(=O)O)c3C1)CCC4)CCC2 (stereo not drawn) |  | 35.6 |  | > 100 |  | > 100 |  | > 100 |  |  |  | > 100 |  | > 100 |  | > 100 |  | 42.3 |  | 69.7
COc1ccc(NC(=O)C2C(=O)N(c3ccc(OC)cc3)C(=O)/C2=N\NC(N)=O)cc1 (stereo not drawn) |  |  |  | > 100 |  | > 100 |  | 37.7 |  | > 100 |  | > 100 |  | > 100 |  | > 100 |  | > 100 |  | 
CCCCNC1=C(C(=O)OCC)/C(=N/NC(=O)c2ccccc2O)CO1 |  | > 100 |  | > 100 |  | > 100 |  | > 100 |  |  |  | > 100 |  | > 100 |  |  |  | 57.8 |  | > 100
NNC(=O)C(O)C(O)C(=O)NN (stereo not drawn) |  |  |  | > 100 |  | > 100 |  | > 100 |  | > 100 |  | > 100 |  | > 100 |  | > 100 |  | > 100 |  | > 100
Cc1noc(/N=C2\C=C(Nc3onc(C)c3C)C(=O)c3ccccc32)c1C |  | > 100 |  | > 100 |  | > 100 |  | > 100 |  | > 100 |  | > 100 |  | > 100 |  | > 100 |  |  |  | > 100
CCCCCCCCCCCCCCCCCC(=O)NCC(COP(=O)(O)O)OCC (stereo not drawn) |  | > 100 |  | 37.5 |  | > 100 |  | > 100 |  |  |  | > 100 |  | > 100 |  | > 100 |  | > 100 |  | > 100
O=C(/C=C/c1ccccc1)CCC1C(=O)NC(=S)NC1=O |  |  |  | > 100 |  | > 100 |  | > 100 |  | > 100 |  | > 100 |  | > 100 |  |  |  |  |  | 
